The test system of this assay is Dukin-Hartley guinea pigs. Description: Bronchodilating activity in vivo (Konzett and Rossler), histamine bronchospasm. Further details: species or system guinea pig. The note with it: Cavia porcellus, iv, effective dose for 50% inhibition, anaesthetized guinea pigs. How it is done:
The bronchodilating activity was measured in vivo by the method of Konzett H. and Rossler R. (Arch. Exp. Pathol. Pharmak., 1940, 195, p. 71 to 74) and Duhault J. et al. (Arzneim. Forsch./Drug. res., 1987, 37, p. 1353 to 1362).
Measurement of the bronchodilating activity:
Dukin-Hartley guinea pigs (400-500 g) are prepared according to the methodology described by Konzett and Rossler. The animals are anaesthetized by an intraperitoneal injection of urethane (1.5 g/kg) and a tracheotomy is prepared for artificial respiration (45 cycles/min; respiratory volume 10 ml/kg).
The animal is connected to a respiratory pump, which is adjusted to deliver a volume of 1 ml per 100 g of body weight of the guinea pig. It is connected to a recorder via a pressure sensor.
A catheter is placed in the jugular for the I.V. injections.
An I.V. injection of gallamine and propanolol is carried out. After stabilizing the pulmonary pressure for 30 minutes, an I.V. injection of histamine is carried out every 10 minutes until reproducibility is achieved; at that point, the test product is injected 10 minutes after the last spasm.

The mark [1] stands for this setting: 5 min, I.V. histamine tested 5 minutes after injection of the product, read-out: Bronchospam ED50 at 5 min.
[2] abbreviates: 0.25 h, I.V. histamine tested 15 minutes after injection of the product, read-out: Bronchospam ED50 at 15 min.

Each structure is given as a SMILES string. Where two headings read alike, the source gives them in different places.

`CC1(C)C=C(c2cccc[n+]2[O-])c2cc(Cl)ccc2OC1` [Compound 91, 7-Chloro-3,3-methyl-(2-pyridyl N-oxide)-2,3-dihydro-1-benzoxepine]: the ED50 (commonly the midpoint of the dose-response relation) under setting [1] amounted to 0.1 mg/kg. As for `CC1(C)C=C(c2cccc[n+]2[O-])c2cc(C(F)(F)F)ccc2OC1` [Compound 100, 3,3-Dimethyl-5-(2-pyridyl N-oxide)-7-trifluoromethyl-2,3-dihydro-1-benzoxepine], the ED50 came to 0.069 mg/kg under setting [1] and 0.101 mg/kg under setting [2]. Consider `CC1(C)C=C(c2cccc[n+]2[O-])c2cc(C#N)ccc2OC1` [Compound 104, 7-Cyano-3,3-dimethyl-5-(2-pyridyl N-oxide)-2,3-dihydro-1-benzoxepine], for which the ED50 was 0.038 mg/kg under setting [1] and 0.21 mg/kg under setting [2]. Turning to `CC1(C)C=C(c2cccc[n+]2[O-])c2cc(C#N)ccc2CC1` [Compound 109, 8-Cyano-3,3-dimethyl-1-(2-pyridyl N-oxide)-4,5-dihydro-3H-benzo [f]cycloheptane], the ED50 amounted to 0.086 mg/kg under setting [1] and 0.331 mg/kg under setting [2]. On the same counts, the results for `CC1(C)C=C(c2cccc[n+]2[O-])c2cc(Cl)c(Cl)cc2OC1` [Compound 111, 7,8-Dichloro-3,3-dimethyl-5-(2-pyridyl N-oxide)-2,3-dihydro-1-benzoxepine] are 0.049 mg/kg and 0.1 mg/kg. As for `CC1(C)C=C(c2cccc[n+]2[O-])c2cc(F)c(F)cc2OC1` [Compound 114, 7,8-Difluoro-3,3-dimethyl-5-(2-pyridyl N-oxide) -2,3-dihydro-1-benzoxepine], the ED50 reads like this: under setting [1], 0.04 mg/kg; under setting [2], 0.3 mg/kg.

With `Cc1cc2c(cc1C#N)C(c1cccc[n+]1[O-])=CC(C)(C)CO2` [Compound 118, 7-Cyano-3,3,8-trimethyl-5-(2-pyridyl N-oxide)-2,3-dihydro-1-benzoxepine], the ED50 came out at 0.15 mg/kg under setting [1] and 0.2 mg/kg under setting [2]. For `Cc1cc2c(cc1C#N)OCC(C)(C)C=C2c1cccc[n+]1[O-]` [Compound 119], the ED50 came out at 0.31 mg/kg under setting [1] and 0.53 mg/kg under setting [2].

(Values after patent US5652252A, “Benzocycloheptenes” (Merck Patent Gesellschaft Mit Beschrankter Haftung, priority 1992, dated 1997).)
